Measured values from patent publication US9458187B2, “Methods for treatment of inflammatory conditions using S-[4-(3-fleuro-3-methylbutyryloxy)but-2-ynyl]6α, 9α-difluoro-17α-(furan-2-yl) carbonyloxy-11β-hydroxy-16α-methyl-3-oxoandrosta-1,4-diene-17β-carbothioate” (Sun Pharma Advanced Research Company Limited, priority 2013, dated 2016).

Legend:
[1] = biological target: T1, Human Glucocorticoid receptor (Homo sapiens, UniProt P04150); experiment: Human glucocorticoid receptor binding (in vitro), [3H]dexamethasone radioligand
T1 construct: expressed in transfected cells; host or cells: human HeLa cells
T1 sequence (P04150 1-777): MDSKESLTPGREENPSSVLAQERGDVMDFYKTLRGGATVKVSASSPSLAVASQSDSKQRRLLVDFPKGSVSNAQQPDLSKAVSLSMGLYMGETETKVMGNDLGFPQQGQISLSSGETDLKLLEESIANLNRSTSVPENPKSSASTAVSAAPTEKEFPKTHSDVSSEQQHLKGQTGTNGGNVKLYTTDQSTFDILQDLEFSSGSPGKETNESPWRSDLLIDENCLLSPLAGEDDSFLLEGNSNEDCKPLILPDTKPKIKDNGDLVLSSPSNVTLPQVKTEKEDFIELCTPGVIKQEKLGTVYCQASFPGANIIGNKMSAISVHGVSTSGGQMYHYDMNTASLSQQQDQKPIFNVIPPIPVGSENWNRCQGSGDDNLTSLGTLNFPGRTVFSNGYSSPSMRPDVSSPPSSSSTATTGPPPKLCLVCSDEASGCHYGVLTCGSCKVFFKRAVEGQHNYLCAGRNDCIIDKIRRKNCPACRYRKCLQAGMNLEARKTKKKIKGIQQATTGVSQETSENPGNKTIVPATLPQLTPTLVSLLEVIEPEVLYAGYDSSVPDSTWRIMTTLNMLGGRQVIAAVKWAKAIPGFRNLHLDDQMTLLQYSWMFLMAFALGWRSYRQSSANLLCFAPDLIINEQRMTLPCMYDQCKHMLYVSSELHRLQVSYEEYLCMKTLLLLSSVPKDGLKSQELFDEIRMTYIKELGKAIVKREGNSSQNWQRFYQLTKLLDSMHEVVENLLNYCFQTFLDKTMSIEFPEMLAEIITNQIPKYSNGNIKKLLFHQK
Description: The activity of test compounds on glucocorticoid receptor was assessed using radioligand binding assays.
The % inhibition was evaluated using a single concentration of test compound and the corresponding radiolabeled ligand. Results are presented as the percent inhibition of specific binding. The values are average of duplicate determinations for each concentration.

[2] = biological target: T2, Progesterone receptor (Homo sapiens, UniProt P06401); experiment: Steroidal receptor binding screen, progesterone (human)
T2 construct: host or cells: insect Sf9
T2 sequence (P06401 1-933): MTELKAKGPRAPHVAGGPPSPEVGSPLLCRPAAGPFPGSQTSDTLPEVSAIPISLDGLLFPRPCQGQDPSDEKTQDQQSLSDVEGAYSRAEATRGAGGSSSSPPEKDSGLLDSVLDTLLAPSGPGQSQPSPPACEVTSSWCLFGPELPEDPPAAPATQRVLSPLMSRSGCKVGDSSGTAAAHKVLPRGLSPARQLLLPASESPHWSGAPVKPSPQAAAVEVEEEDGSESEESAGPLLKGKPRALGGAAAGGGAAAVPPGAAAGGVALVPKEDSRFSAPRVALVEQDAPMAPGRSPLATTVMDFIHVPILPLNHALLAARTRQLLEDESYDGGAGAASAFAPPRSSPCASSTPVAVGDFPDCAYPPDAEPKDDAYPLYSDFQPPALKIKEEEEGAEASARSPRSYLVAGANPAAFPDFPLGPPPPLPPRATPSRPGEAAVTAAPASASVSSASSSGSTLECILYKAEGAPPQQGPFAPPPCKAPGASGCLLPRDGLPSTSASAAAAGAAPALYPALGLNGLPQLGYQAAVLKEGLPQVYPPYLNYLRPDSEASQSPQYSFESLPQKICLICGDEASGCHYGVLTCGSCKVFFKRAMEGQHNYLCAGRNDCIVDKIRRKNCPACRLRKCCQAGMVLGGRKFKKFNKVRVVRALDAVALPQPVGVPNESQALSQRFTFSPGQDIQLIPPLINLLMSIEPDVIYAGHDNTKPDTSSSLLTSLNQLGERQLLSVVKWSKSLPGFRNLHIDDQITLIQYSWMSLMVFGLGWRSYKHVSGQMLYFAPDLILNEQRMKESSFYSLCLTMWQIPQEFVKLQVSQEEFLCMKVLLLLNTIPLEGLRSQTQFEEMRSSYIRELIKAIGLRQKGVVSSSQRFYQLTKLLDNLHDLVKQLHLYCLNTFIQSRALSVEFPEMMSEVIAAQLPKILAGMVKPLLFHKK
From the text: For determination of binding to other related steroidal receptors by compound of the present invention cloned receptors from cells indicated in the parentheses were used: estrogen Erα/Erβ and progesterone (human recombinant insect Sf9), testosterone (human LnCAP) and aldosterone (Wistar rat kidney).

[3] = system: croton oil ear edema; experiment: Croton oil ear edema; format: in vivo, Mice (male, CD-1); settings: 1 μg, applied to ear 2 hrs before croton oil
Description: Mice (male, CD-1) were made into different groups. A method similar to one reported in the literature was used. Test compounds were dissolved in pyridine-water-acetone (4:2:14) solution 10 μl of this solution of compound or vehicle solution was applied to the left ear of the mice. The right ear of each mouse was applied simultaneously with 10 μl of pyridine: water: acetone (4:2:14) solution. After 2 hrs of compound or vehicle application, 10 μl of croton oil solution was applied to the left ear of all animals. After 6 hr of croton oil treatment the animals were sacrificed; ears were excised and weighed separately.

[4] = system: cotton pellet granuloma; experiment: Cotton pellet granuloma test; format: in vivo, SD rats
Description: SD rats were used for assessing anti-inflammatory activity of test compound using cotton pellet granuloma method. Sterilized cotton pellets weighing 20 mg were prepared. Test compounds were dissolved in acetone so as to get the required quantity for each cotton pellet in 500 μl. Different pellets were impregnated with 500 μl of acetone to contain required quantity of test compounds and allowed to dry. Vehicle control pellets were impregnated with 500 μl acetone.
Rats were made into different groups. Two cotton pellets were surgically implanted into the scapular region of each rat. On sixth day of such implantation, pellets along with granuloma were taken out. Thymus gland was also separated from each animal and weighed. The pellets with granuloma were dried for 20 hrs at 60° C. and weighed. Mean weights of dry granuloma and thymus, body weight gain/100 g body weights were calculated.

[5] = system: intraocular pressure (IOP); experiment: Effect on intraocular pressure (IOP); format: in vivo, rabbits; settings: 40 μl ophthalmic, 10 instillations daily for 10 days; FIG. 4
Description: IOP measurement was performed 1 hr after instillation of the last dose (results are represented in FIG. 4—Effect of ophthalmic steroids on-IOP in rabbits).

[6] = Oral bioavailability and systemic plasma half-life; settings: in vivo
[7] = system: liver glycogen deposition; experiment: Liver glycogen deposition; format: in vivo, Male Sprague Dawley rats; settings: 3 mg/kg intratracheal, 2 doses 24 hrs apart, adrenalectomized rats

Compound: C[C@@H]1CC2C3C[C@H](F)C4=CC(=O)C=C[C@]4(C)[C@@]3(F)[C@@H](O)C[C@]2(C)[C@@]1(OC(=O)c1ccco1)C(=O)SCC#CCOC(=O)CC(C)(C)F (stereo partly drawn) [Formula I, S-[4-(3-Fluoro-3-methylbutyryloxy)but-2-ynyl]6α,9α-difluoro-17α-(furan-2-yl)carbonyloxy-11β-hydroxy-16α-methyl-3-oxoandrosta-1,4-diene-17β-carbothioate]
- IC50 [1]: 2.3 nM
- Ki [1]: 1.24 nM
- potency and selectivity towards human glucocorticoid receptor ([1]; compared with aldosterone, estrogen, progesterone and testosterone receptors): good potency and selectivity
- IC50 [2]: 8.52 nM
- Ki [2]: 3.29 nM
- Inhibition of ear edema (%) [3]: 75.5%
- Mean % Inhibition of Granuloma A ([4]; 100 mcg/pellet): 58.13%
- Thymus wt. (% Decrease) B ([4]; 100 mcg/pellet): 4.67%
- thymus involution and body weight gain (systemic side effect markers) ([4]; even at 100 mcg per pellet): insignificant
- intraocular pressure (IOP) [5]: insignificant (comparable to placebo)
- systemic plasma half-life [6]: short systemic plasma half-life
- oral bioavailability ([6]; po): low oral bioavailability
- % Inhibition of thymus [7]: 26.15%
